Reference: patent US11236055B2 (Venenum Biodesign, LLC, priority 2016, dated 2022)
Read-outs that look alike come from different tables or passages of the source.

Experiments:
[1] = Absorption vs. first pass metabolism: Cmax with and without 1-aminobenzotriazole (ABT) pre-treatment; format: in vivo, mouse; details: ICR, mouse, plasma; lean mice receiving ABT (150 mg/kg) 2 h before compound, 10 mg/kg oral
Procedure: Absorption Vs. First Pass Metabolism
In this study, the absorption was examined as compared to first pass metabolism of the compounds of the present invention. ICR mice (Hilltop) were pre-treated with 1-aminobenzotriazole (ABT), a nonselective inhibitor of cytochrome P450 enzymes to inhibit Cyp450-mediated degradation of the compounds in liver.
ABT was administered at 150 mg/kg in 5 mL/kg of 0.04% ethanol in 0.5% methyl cellulose (w/v) by oral gavage, 2 hours prior to test compound administration. The compounds 20AA and 20AC were administered by oral gavage at 10 mg/kg in 10 mL/kg of 20% PEG400/80% (0.5% (w/v) CMC containing 0.25% (v/v) Tween 80) (v/v), 2 hours after the ABT treatment. Blood was collected via orbital bleeding at predose, 0.25, 0.5, 1, 2, and 4 hours post-dose and the quantification of compound levels in plasma was accomplished by means of LC-MS/MS analysis as described in Example 59. Reference compound “Propranolol” that is known to be metabolized by Cyp450 was used as a positive control.
FIG. 4 depicts the Cmax (nM) of the compounds of the present invention with and without ABT pre-treatment.

[2] = Portal vein versus systemic pharmacokinetics in hepatic portal vein cannulated rats; format: in vivo, rat; details: portal vein cannulated male CD (SD) rats, 10 mg/kg oral; for Cmax / Tmax / AUC(0-t): rat; for AUC(0-t): read-out: AUC (0-7 h)
Procedure: Low Level of Compounds is Attributed to Low Intestinal Absorption
In this study, it was determined if the low plasma level of the compounds of the present invention is due to low absorption in the gut, or due to the first pass effect (i.e., absorption followed by a rapid degradation of compounds by liver). Hepatic portal vein cannulated male CD (SD) rats obtained from Charles River Laboratory were utilized. In brief, Compound 20BG was administered orally at 10 mg/kg, and blood was obtained simultaneously from the portal vein and systemic circulation (retro-orbital sinus) at pre-dose, 0.25, 0.5, 1, 2, and 4 hours post-dose, in EDTA coated tubes. The samples were processed into plasma and quantification of compound levels in the plasma was accomplished by means of LC-MS/MS analysis as described in Example 59.

DIO mice = assay: Food intake after multiple days of dosing in DIO mice; format: in vivo, mouse; details: DIO mice on high fat diet, oral BID for 12 days
Procedure: Monitoring of Food Intake after Multiple Days of Dosing Compounds
Compounds of the present invention were dosed for multiple days and were evaluated for their ability to cause mice to have a lower food intake. Mice were dosed compounds for 12 days as per the protocol in Example 66.
The HFD (Research Diets, D12492, 60% fat kcal) is placed at the bottom of the cage of a singly-housed animal. The remaining food in each cage is recovered and weighed again at the same time of day 3 or 4 days later. The difference in the starting and ending food weight represents the amount of food consumed. Daily food intake is calculated by averaging over a 3 or 4 day period every week.

[3] = tested on: GLP-1 plasma level in DIO mice; assay: GLP-1 levels after multiple days of dosing in DIO mice; format: in vivo, mouse; details: 12 days BID oral, in combination with linagliptin, 6 h after final dose
Procedure: GLP-1 Levels after Multiple Days of Dosing Compounds
Compounds of the present invention were dosed for multiple days and were evaluated to determine if they produce sustained GLP-1 levels. In this example, the protocol from Example 66 was utilized. In week 2 of the study, mice were euthanized and blood was collected 6 hours after the final dose of compound. For the GLP-1 assay, 200-250 μL of blood was placed in an EDTA K^2+ tube containing 5 μL of 40 mg/mL aprotinin (Sigma A1153) and 1 μL of 10 mM sitagliptin (Sigma S8576) and plasma was separated by centrifugation. Plasma samples were stored at −20° C. until analysis. The active form of GLP-1 [GLP-1 (7-36) amide] was analyzed using Meso Scale Discovery System according to the manufacturer's directions (item number K150HYC). Values of p<0.05 are considered statistically significant.

[4] = Bile weight after multiple days of dosing in DIO mice; format: in vivo, mouse; details: 12 days of dosing, about 6 h after final dose
Procedure: No Bile Weight Increase after Multiple Days of Dosing Compounds
Compounds of the present invention were dosed for multiple days and evaluated for an increase in bile weight within the gallbladder. In this example, the protocol from Example 66 was utilized. In week 2 of the study, mice were euthanized and bile was removed from the gallbladder about 6 hours after the final dose and the bile was weighed to approximate the volume of bile contained within the bladder.

[5] = portal vein plasma, Portal Vein bleed
[6] = systemic plasma (retro-orbital sinus), Peripheral bleed (retro-orbital sinus)

SMILES: Cc1cnccc1-c1cccc(C(C)(C)N(CCCC(=O)NCCS(=O)(=O)O)S(=O)(=O)c2ccccc2C(F)(F)F)c1 [Compound 20AA, 2-(4-(N-(2-(3-(3-methylpyridin-4-yl)phenyl)propan-2-yl)-2-(trifluoromethyl)phenylsulfonamido)butanamido)ethanesulfonic acid]
- Cmax [1]: 2.6 nM
- Tmax [1]: 15 min

SMILES: CCc1cnccc1-c1cccc([C@H](C)N(CCCC(=O)NCCS(=O)(=O)NCC(=O)O)S(=O)(=O)c2ccccc2C(F)(F)F)c1 [Compound 20BG]
- absorption (PK in portal vein and systemic circulation) [2]: very low absorption
- Cmax [2, 5]: 7.6 ± 3.6 ng/mL
- Tmax [2, 5]: 15 to 120 min
- AUC(0-t) [2, 5]: 30.1 ± 0.9 ng·h/mL
- Cmax [2, 6]: 1.3 ± 0.7 ng/mL
- Tmax [2, 6]: 15 to 60 min
- AUC(0-t) [2, 6]: 3.1 ± 10.8 ng·h/mL
- food intake (DIO mice): no significant effect
- GLP-1 plasma level versus vehicle [3]: significantly increased
- bile weight / gallbladder size [4]: does not show an increase
